Our source for the IC50 values is ChEMBL document CHEMBL5104143, “Synthesis and evaluation of hydrazinyl-containing pyrrolo[2,3-d]pyrimidine series as potent, selective and oral JAK1 inhibitors for the treatment of rheumatoid arthritis” (Bioorg Med Chem Lett, 2022).

Assay [1] addresses Tyrosine-protein kinase JAK1 (Homo sapiens, UniProt P23458). In words: Inhibition of JAK1 (unknown origin).
Assay [2] addresses Tyrosine-protein kinase JAK2 (Homo sapiens, UniProt O60674).
Description: Inhibition of JAK2 (unknown origin)
In assay [3] the target is T1, Tyrosine-protein kinase JAK3 (Homo sapiens, UniProt P52333).
T1 sequence (P52333 whole entry): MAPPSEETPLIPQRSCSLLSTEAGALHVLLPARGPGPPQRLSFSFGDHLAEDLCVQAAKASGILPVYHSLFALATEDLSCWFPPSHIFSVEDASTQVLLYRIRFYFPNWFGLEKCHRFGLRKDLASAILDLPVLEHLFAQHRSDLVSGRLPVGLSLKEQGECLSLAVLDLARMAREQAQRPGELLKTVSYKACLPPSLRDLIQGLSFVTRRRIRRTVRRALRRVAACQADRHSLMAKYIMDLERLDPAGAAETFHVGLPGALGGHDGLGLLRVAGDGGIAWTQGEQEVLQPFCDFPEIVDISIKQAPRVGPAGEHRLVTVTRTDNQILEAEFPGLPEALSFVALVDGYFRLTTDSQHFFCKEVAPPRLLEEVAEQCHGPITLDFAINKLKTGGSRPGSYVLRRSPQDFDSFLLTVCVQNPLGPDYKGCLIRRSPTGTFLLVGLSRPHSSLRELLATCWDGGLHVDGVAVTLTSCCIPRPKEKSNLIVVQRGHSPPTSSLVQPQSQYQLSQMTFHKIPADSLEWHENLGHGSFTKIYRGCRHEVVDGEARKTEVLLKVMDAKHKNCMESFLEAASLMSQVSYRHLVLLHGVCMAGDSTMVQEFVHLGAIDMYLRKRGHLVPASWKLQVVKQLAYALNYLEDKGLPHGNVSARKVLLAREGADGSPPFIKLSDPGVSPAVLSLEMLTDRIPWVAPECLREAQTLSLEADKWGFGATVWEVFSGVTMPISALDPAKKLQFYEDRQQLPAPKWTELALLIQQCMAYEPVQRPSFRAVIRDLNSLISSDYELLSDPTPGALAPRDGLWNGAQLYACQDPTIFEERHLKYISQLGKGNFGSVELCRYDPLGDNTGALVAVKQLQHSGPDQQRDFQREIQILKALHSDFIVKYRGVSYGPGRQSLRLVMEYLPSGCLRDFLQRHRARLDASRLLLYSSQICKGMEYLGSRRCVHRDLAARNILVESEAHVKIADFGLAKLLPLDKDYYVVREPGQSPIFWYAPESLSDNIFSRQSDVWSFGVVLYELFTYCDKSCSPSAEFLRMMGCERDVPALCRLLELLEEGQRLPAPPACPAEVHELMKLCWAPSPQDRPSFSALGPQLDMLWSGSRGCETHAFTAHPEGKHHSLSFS
Description: Inhibition of JAK3 (unknown origin)

Chain of Tyrosine-protein kinase JAK2 (O60674 whole entry): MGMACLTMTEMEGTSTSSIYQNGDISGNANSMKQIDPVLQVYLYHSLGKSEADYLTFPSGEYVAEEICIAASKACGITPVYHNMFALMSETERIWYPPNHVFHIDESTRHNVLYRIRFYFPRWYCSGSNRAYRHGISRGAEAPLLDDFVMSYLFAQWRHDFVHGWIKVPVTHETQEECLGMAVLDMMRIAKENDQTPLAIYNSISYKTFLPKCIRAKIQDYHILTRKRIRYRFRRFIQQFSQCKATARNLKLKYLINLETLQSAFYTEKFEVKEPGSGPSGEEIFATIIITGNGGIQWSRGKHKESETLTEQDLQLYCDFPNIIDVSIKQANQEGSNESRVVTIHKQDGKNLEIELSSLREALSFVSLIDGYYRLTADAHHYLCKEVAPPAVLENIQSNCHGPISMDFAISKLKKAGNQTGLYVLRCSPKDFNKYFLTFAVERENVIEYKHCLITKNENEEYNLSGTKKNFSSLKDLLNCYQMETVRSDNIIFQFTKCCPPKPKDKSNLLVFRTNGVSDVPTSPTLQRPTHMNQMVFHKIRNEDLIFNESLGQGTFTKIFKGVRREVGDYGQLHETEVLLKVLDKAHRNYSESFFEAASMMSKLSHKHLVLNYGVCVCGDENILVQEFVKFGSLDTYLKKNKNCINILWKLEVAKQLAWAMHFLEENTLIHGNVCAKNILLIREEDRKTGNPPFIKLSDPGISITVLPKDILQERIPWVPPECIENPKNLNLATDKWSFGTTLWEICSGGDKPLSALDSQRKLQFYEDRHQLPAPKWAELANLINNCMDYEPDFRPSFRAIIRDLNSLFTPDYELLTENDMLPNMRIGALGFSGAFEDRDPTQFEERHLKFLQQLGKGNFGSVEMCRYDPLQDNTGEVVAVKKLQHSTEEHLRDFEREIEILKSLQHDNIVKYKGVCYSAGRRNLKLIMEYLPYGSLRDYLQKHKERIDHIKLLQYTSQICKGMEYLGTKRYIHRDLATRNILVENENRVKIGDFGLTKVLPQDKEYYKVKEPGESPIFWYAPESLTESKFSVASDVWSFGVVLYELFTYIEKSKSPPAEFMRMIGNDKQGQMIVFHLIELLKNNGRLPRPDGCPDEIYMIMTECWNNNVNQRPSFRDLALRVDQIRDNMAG
Chain of Tyrosine-protein kinase JAK1 (P23458 whole entry): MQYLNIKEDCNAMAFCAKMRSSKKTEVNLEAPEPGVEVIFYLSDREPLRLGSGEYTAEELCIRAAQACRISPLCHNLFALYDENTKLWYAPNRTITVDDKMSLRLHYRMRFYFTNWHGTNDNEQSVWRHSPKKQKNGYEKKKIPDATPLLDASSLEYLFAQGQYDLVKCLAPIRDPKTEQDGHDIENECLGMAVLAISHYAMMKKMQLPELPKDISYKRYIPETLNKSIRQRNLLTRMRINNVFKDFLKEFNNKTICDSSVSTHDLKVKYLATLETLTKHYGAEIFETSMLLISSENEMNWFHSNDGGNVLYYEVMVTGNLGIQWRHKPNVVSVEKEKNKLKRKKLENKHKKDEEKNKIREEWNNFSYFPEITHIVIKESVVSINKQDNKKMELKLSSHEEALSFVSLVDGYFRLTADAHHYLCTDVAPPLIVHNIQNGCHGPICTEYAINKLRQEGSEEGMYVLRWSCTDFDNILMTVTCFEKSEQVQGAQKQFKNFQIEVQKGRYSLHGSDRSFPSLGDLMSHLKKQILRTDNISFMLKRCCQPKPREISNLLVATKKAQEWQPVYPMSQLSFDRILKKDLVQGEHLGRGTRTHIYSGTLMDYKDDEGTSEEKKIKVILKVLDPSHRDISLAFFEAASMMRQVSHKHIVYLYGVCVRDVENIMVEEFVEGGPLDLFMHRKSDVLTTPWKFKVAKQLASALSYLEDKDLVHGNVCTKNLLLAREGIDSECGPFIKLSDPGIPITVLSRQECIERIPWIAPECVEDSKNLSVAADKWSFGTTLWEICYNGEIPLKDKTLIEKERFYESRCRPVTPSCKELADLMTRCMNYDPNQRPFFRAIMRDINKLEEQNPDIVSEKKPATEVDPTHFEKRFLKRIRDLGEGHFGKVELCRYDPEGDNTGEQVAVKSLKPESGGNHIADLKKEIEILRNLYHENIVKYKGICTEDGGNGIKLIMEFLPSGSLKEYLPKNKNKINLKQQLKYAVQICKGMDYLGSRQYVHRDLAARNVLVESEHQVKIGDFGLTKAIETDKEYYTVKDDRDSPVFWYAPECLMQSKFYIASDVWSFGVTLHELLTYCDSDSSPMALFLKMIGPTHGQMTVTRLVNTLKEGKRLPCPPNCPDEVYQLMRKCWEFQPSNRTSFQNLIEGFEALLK

For the compound `CC1CCC(C(=O)NCC#N)CN1N(C)c1ncnc2[nH]ccc12` (configuration not stated), the 50% inhibitory concentration (IC50) in assay [1] was 521 nM; in assay [2], 1430 nM; in assay [3], 362 nM.
For the compound `CN(c1ncnc2[nH]ccc12)N1CCCC(C(=O)N2CC(O)C2)C1` (configuration not stated), the results for the IC50 in assay [1], in assay [2] and in assay [3] were 155 nM, 817 nM and 518 nM, respectively.
With `CN(c1ncnc2[nH]ccc12)N1CCCC(C(=O)NCC#N)C1` (configuration not stated), the IC50 in assay [1] was 1.6 nM; in assay [2], 11.6 nM; in assay [3], 8 nM.
For the compound `CN(c1ncnc2[nH]ccc12)N1CCC(C(=O)NCC(F)(F)F)C1` (configuration not stated), the IC50 in assay [1] was 1.9 nM; in assay [2], 36 nM; in assay [3], 29 nM.
As for `CN(c1ncnc2[nH]ccc12)N1CC[C@@H](C(=O)NCC(F)(F)F)C1`, the concentration for half-maximal inhibition (IC50) in assay [1] was found to be 0.16 nM; in assay [2], 8.5 nM; in assay [3], 15 nM.
`CN(c1ncnc2[nH]ccc12)N1CCC[C@@H](C(=O)NCC(F)(F)F)C1`: the figures for the concentration for half-maximal inhibition (IC50) in assay [1], in assay [2] and in assay [3] were 0.7 nM, 13 nM and 6.2 nM, respectively.
For `COCNC(=O)C1CCCN(N(C)c2ncnc3[nH]ccc23)C1` (configuration not stated), the IC50 in assay [1] came to 21.3 nM; in assay [2] it was 148 nM; in assay [3], 83.2 nM.
With `CN(c1ncnc2[nH]ccc12)N1CCC(C(=O)NCC#N)CC1`, the IC50 in assay [1] was 12 nM; in assay [2], 272 nM; in assay [3], 287 nM.
Take `CN(c1ncnc2[nH]ccc12)N1CCCC(C)(C(=O)NCC#N)C1` (configuration not stated): the IC50 in assay [1] is 1860 nM; in assay [2], 4800 nM; in assay [3] it was 1580 nM.
As for `CN(c1ncnc2[nH]ccc12)N1CCCC(C(=O)NCC(F)(F)F)C1` (configuration not stated), the values for the IC50 in assay [1], in assay [2] and in assay [3] were 2.9 nM, 33.2 nM and 16.1 nM, respectively.
Taken in the same sequence, the figures for `CN(c1ncnc2[nH]ccc12)N1CCC(C(=O)NCC#N)C1` (configuration not stated) were 3.3 nM, 43 nM and 25.1 nM.
The like results for `CN(c1ncnc2[nH]ccc12)N1CC[C@H](C(=O)NCC(F)(F)F)C1` were, in that order, 18 nM, 361 nM and 13 nM.
Taken in the same sequence, the figures for `CN(c1ncnc2[nH]ccc12)N1CCC[C@@H](C(=O)NCC#N)C1` were 0.3 nM, 3.6 nM and 3.9 nM.
On to `CN(CC(F)(F)F)C(=O)C1CCCN(N(C)c2ncnc3[nH]ccc23)C1` (configuration not stated), for which the IC50 in assay [1] stood at 15.1 nM; in assay [2], 165 nM; in assay [3], 77.4 nM.
Turning to `CN(c1ncnc2[nH]ccc12)N1CCC(C(=O)NCC(F)(F)F)CC1`, the IC50 amounted to 14 nM in assay [1], 316 nM in assay [2] and 186 nM in assay [3].
`CC1CCC(C(=O)NCC(F)(F)F)CN1N(C)c1ncnc2[nH]ccc12` (configuration not stated): the IC50 is 309 nM in assay [1], 2000 nM in assay [2] and 339 nM in assay [3].
Taken in the same sequence, the figures for `CN(c1ncnc2[nH]ccc12)N1CCCN(C(=O)CC(F)(F)F)CC1` were 10000 nM, 10000 nM and 10000 nM.
With `CN(c1ncnc2[nH]ccc12)N1CCCC(C(=O)NCC(F)F)C1` (configuration not stated), the IC50 in assay [1] is 1.6 nM; in assay [2], 16.1 nM; in assay [3], 8.3 nM.
`CN(c1ncnc2[nH]ccc12)N1CCC(C)(C(=O)NCC(F)(F)F)C1` (configuration not stated): the figures for the IC50 in assay [1], in assay [2] and in assay [3] were 5020 nM, 10000 nM and 5970 nM, respectively.
In the case of `CN(c1ncnc2[nH]ccc12)N1CCCC(C(=O)NCCC#N)C1` (configuration not stated), the 50% inhibitory concentration (IC50) in assay [1] came to 35 nM; in assay [3], 188 nM.
In the case of `CN(c1ncnc2[nH]ccc12)N1CCCC(N2CCCC2=O)C1` (configuration not stated), the IC50 was 1120 nM in assay [1], 3500 nM in assay [2] and 349 nM in assay [3].

A word on the IC50: it is the midpoint of a concentration-inhibition curve. A lower IC50 goes with greater potency in that assay.
